We go through two compounds from US20210130789A1, “METHODS OF STROMAL CELL EXPANSION, USES AND MATERIALS RELATED THERETO” (CITY OF HOPE, priority 2019, published 2021).

Test [1] deals with pancreatic-derived human islets and MSCs. Kind of test: Cytokine injury and proliferative capacity of DMOG-treated islets and MSCs in vitro. It counts as cell-based. The protocol: (§1) Islets of high and low purity, and mesenchymal stem cells (MSCs) as a potential source of human islets, isolated from human donor pancreata were treated with the PHD inhibitor DMOG. Alterations in gene expression, cell proliferation, survival and metabolism were characterized.
(§2) As shown in FIGS. 10-12, pancreatic-derived human islets and MSCs were treated with DMOG or control at several concentrations and time intervals. The levels of HIF-1a were increased and PHD decreased in DMOG-treated versus control cells, and in a dose-dependent manner.

In test [2] the test system is Human umbilical vein endothelial cells (HUVECs). The experiment in a line: In vitro angiogenesis assay: endothelial tube formation with IPTD-MSC conditioned media. It counts as cell-based. Particulars: 24 hours, media from treated IPTD-MSCs. The protocol: Angiogenic capacity was assessed by quantifying endothelial tube formation. Human umbilical vein endothelial cells (HUVECs) (Cell Applications Inc., San Diego, Calif.; Cat #200p-05n) between passages 2 to 6 were cultured in a standard medium. Cells (1×10^5 cells/well) were plated in 24-well plates (Fisher, Cat #930186) coated with Matrigel (Corning, Cat #356234), and incubated for 30 minutes to allow cell attachment. Supernatants (150 μL/well) from control and stimulated IPTD-MSCs (DMOG, TNF-α, or DMOG+TNF-α) were added to obtain a total volume of 300 μL per well. Plates were then incubated at 37° C., 5% CO2 for 24 hours. At 4 and 24 hours, the wells were visualized using a Leica microscope and representative photographic images were obtained. Total endothelial tube number and tube length were determined using ImageJ software (NIH, Bethesda, Md.).

A further test concerns human islets. Kind of test: mRNA levels in human islets treated with DMOG. The class given is cell-based. The note with it: DMOG 1 mM. The protocol: as §1, §2
For another test, the system named is human islets and MSC. The experiment in a line: Protection of human islets and MSC from hypoxia. The class given is cell-based. From the text:
(§3) Furthermore, DMOG protected the human islets and MSC from hypoxia by inhibiting Hypoxia-inducible Factor Prolyl Hydroxylase (HIF-Phase) resulted into augmentation of certain transcription factor(s) associated that could be highly beneficial for the islet and cell survival and function. Islets in particular are oxygen sensitive and when oxygen demand exceeds the supply, the HIF pathway is triggered to adapt for hypoxic conditions as a result of inactivation of HIF-Phase, an enzyme that contributes to degradation of HIF-1α. Thus, inhibiting HIF-Phase enzyme activity leads to increased HIF-1α protein in cells. Up-regulation of HIF-1α at transcriptional and translational levels leads to production of erythropoietin (EPO) and other proteins, including glycolytic enzyme, glucose transporter-1 (Glut-1) and vascular endothelial growth factor (VEGF). These factors are important to protect islets from cytokine induced cell death and also potentiate islet function, survival, and proliferation.

Test [3] relates to pancreatic-derived human islets and MSCs. Kind of test: HIF-1a, PHD and survival gene levels in DMOG-treated islets and MSCs. It counts as cell-based. On the procedure: as §1, §2
Test [4] deals with IPTD-MSCs. The experiment in a line: Cytokine assay (Luminex) of supernatants from treated IPTD-MSCs. The class given is cell-based, human. The protocol: Supernatants from cells cultured for 24 hours under various conditions (medium alone, or medium plus DMOG, TNF-α, or DMOG+TNF-α) were collected, and cytokine analysis performed using a Luminex assay kit (Bio-Rad, Hercules, Calif.) according to the manufacturer's protocol. The following growth factors/cytokines were measured: VEGF, IL-6, IL-8, MMP-9, MCP-1, MMP-2, IL-4, IL-10 and […]. Sample were measured in duplicate.

In a further test the test system is diabetic mice. The experiment in a line: Engraftment of DMOG-treated islets in diabetic mice. The class given is in vivo.
A further test has as its system pancreatic ductal cells. The experiment in a line: mRNA levels in pancreatic ductal cells treated with DMOG. It counts as cell-based, human. The note with it: DMOG 1 mM, one donor. On the procedure: One donor was tested. The data are expressed as mean±SD.
Test [5] deals with IPTD-MSCs. Kind of test: Quantitative real-time PCR of IPTD-MSCs treated in vitro with TNF-α and DMOG. The class given is cell-based, human. The note with it: 24 hours; TNF-α 10 ng/ml and/or DMOG 1 mM; compared to control. On the procedure: Recombinant human TNF-α protein (R&D Systems, Minneapolis, Minn.) was reconstituted in research-grade water (Hospira, Lake Forest, Ill.) to a concentration of 100 ng/mL, aliquoted and stored at −20° C. Dimethyloxallyl glycine (DMOG; Cayman Chemicals, Ann Arbor, Mich.) was dissolved in water to yield a stock solution of 57.1 mM, aliquoted (100 μL) and stored at −80° C. IPTD-MSCs were incubated in T-25 flasks in 5 ml of CMRL-1066 medium supplemented with 5% hPL until ˜50% confluent. Cells were cultured for 24 hours in CMRL 1066 medium, or medium containing 10 ng/ml TNF-α, 1 mM DMOG or 1 mM DMOG and 10 ng/ml TNF-α. Following treatment, cells were collected in 1.7-ml Eppendorf tubes and stored in RLT buffer (Qiagen, Germantown, Md.) at −80° C. for future preparation of cDNA.
The TaqMan Gene Expression Assay system (ThermoFisher Scientific) was used to quantify β-ACTIN, TSG-6, NRF2, and VEGF mRNA levels. Total RNA was extracted using a Qiagen Mini Kit (Cat. No. 51306) and converted into cDNA. Real-time quantitative PCR was run in duplicate on a ViiA™ 7 Real-Time PCR System with a 384-well block (ThermoFisher Scientific). Thermal cycles were programmed for 20 seconds at 95° C. for the initial denaturation, followed by 45 cycles of […] at 95° C. for denaturation, 30 seconds at 60° C. for annealing, 60 seconds at 72° C. for extension, and a final extension at 72° C. for 10 minutes. All PCR runs were performed with negative (water) and positive controls. β-ACTIN was used as an internal control to quantify relative gene expression.
(Quantitative PCR measures a nucleic acid by following its amplification.)

Test [6] has as its system IPTD-MSCs and islet cells. The experiment in a line: TSG6 and VEGF expression in cells cultured under normoxic condition. The class given is cell-based, human. The note with it: normoxic condition (5% CO2, 21% O2).
Text: as §3

The mark [7] stands for this setting: DMOG-treated versus control cells, dose-dependent.
Setting [8] is: culture medium after 24 hours, compared to control.

On to `COC(=O)CNC(=O)C(=O)OC` [DMOG, dimethyloxalylglycine], for which, in test [1], the proliferative capacity entry was “higher proliferative capacity” and the “susceptibility to cytokine injury” value is given as “less susceptible”. Besides, in test [2], the “numbers of cell tubes” value was found to be 21.0±2.0 and the tube length is recorded as 28.6±9.9 mm. Besides, the “mRNA levels of VEGF gene” value in the test on human islets (human islets Fr 1, purity >70%) is listed as “increased mRNA levels”. In addition, in the test with human islets (human islets Fr 2, purity <50%), the “mRNA levels of EPO gene” value is “increased mRNA levels”, the “mRNA levels of INS gene” value is listed as “increased mRNA levels”, the “mRNA levels of PDX1 gene” value is “increased mRNA levels” and the “mRNA levels of TSG-6 gene” value is on record as “increased mRNA levels”. Further, in the test with human islets (human islets Fr 2, purity <50%), the “mRNA levels of VEGF gene” value is recorded as “increased mRNA levels”. In addition, in the test on human islets and MSC, the protection from hypoxia result is given as “protected”. In test [3] (DMOG treatment of islets and MSCs), the “key survival genes (EPO, glycolytic enzyme, Glut-1, VEGF)” value is “upregulation”. Also, in test [3] (setting [7]), the “levels of HIF-1a” value is on record as “increased” and the “levels of PHD” value is recorded as “decreased”. Besides, the “Levels of MCP-1” value in the test on IPTD-MSCs [4] (conditioned media after 24 hours) was “reduced”. For the same compound, in the test with IPTD-MSCs [4] (setting [8]), the “secretion of IL-4” value is reported as “enhanced the secretion”, the “secretion of IL-6” value is “enhanced the secretion”, the “secretion of IL-8” value was “enhanced the secretion” and the “secretion of VEGF” value is recorded as “enhanced the secretion”. Further, in the test with diabetic mice, the engraftment result is on record as “increased engraftment” and the glucose homeostasis entry was “improved glucose homeostasis”. In addition, in the test with pancreatic ductal cells, the “mRNA levels of TSG-6 gene” value was “increased mRNA levels” and the “mRNA levels of VEGF gene” value was “increased mRNA levels”. In the test with IPTD-MSCs [5], the NRF2 expression result is recorded as “significantly increased” and the VEGF expression entry is “significantly increased”. Besides, the VEGF upregulated in test [6] (IPTD-MSCs and islet cells) is recorded as 51 fold. In addition, the TSG6 upregulated in test [6] (IPTD-MSCs and islet cells for DMOG, MSC for TNF-α plus DMOG) amounted to 31 fold.

For the compound TNF-α, in test [2], the “numbers of cell tubes” value is “no effect” and the tube length entry was “no effect”. Besides, the “effect on any of the cytokines examined” value in the test with IPTD-MSCs [4] (culture medium after 24 hours, compared to controls) is “did not have an effect”. Moreover, in the test with IPTD-MSCs [5], the “TSG-6 gene expression levels” value is “significantly increased”.
